Assay results as given in patent US8471005B2 (Cephalon, Inc., priority 2008, dated 2013).
pIC50: −log10 of the molar value. Where two headings read alike, the source gives them in different places.

Columns and labels:
ALK = target: T1, ALK (Homo sapiens, UniProt Q9UM73); assay: ALK Kinase Assay (ELISA/TRF, PLC-γ substrate); type: biochemical; conditions: read-out: ALK Potency
T1 construct: host or cells: baculovirus expression system
Method in brief: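 Wells were coated with 10 μg/mL phospholipase C-γ substrate in TBS, and the reaction was started by adding 30 ng/ml ALK enzyme and run at 37° C for 15 minutes. Phosphorylated product was detected with Eu-N1-labeled PT66 antibody, and IC50 values came from sigmoidal variable-slope fits of percent inhibition against log concentration.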

JAK2 = target: T2, JAK2 (Homo sapiens, UniProt O60674); assay: Recombinant Human JAK2 Kinase Assay (TRF); type: biochemical; conditions: read-out: JAK2 Potency
T2 construct: host or cells: baculovirus expression system
Method in brief: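 Kinase activity of baculovirus-expressed JAK2 is followed on a surface-immobilised biotinylated peptide, with the reaction run for 20 min at room temperature in buffer containing 0.2 μM ATP and manganese. Phosphorylation is read with Eu-N1 PY100 antibody.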

[1] = ALK kinase inhibition, 1 μM ATP
[2] = JAK2 kinase inhibition, 0.2 μM ATP

T1 sequence (Q9UM73 19-1620): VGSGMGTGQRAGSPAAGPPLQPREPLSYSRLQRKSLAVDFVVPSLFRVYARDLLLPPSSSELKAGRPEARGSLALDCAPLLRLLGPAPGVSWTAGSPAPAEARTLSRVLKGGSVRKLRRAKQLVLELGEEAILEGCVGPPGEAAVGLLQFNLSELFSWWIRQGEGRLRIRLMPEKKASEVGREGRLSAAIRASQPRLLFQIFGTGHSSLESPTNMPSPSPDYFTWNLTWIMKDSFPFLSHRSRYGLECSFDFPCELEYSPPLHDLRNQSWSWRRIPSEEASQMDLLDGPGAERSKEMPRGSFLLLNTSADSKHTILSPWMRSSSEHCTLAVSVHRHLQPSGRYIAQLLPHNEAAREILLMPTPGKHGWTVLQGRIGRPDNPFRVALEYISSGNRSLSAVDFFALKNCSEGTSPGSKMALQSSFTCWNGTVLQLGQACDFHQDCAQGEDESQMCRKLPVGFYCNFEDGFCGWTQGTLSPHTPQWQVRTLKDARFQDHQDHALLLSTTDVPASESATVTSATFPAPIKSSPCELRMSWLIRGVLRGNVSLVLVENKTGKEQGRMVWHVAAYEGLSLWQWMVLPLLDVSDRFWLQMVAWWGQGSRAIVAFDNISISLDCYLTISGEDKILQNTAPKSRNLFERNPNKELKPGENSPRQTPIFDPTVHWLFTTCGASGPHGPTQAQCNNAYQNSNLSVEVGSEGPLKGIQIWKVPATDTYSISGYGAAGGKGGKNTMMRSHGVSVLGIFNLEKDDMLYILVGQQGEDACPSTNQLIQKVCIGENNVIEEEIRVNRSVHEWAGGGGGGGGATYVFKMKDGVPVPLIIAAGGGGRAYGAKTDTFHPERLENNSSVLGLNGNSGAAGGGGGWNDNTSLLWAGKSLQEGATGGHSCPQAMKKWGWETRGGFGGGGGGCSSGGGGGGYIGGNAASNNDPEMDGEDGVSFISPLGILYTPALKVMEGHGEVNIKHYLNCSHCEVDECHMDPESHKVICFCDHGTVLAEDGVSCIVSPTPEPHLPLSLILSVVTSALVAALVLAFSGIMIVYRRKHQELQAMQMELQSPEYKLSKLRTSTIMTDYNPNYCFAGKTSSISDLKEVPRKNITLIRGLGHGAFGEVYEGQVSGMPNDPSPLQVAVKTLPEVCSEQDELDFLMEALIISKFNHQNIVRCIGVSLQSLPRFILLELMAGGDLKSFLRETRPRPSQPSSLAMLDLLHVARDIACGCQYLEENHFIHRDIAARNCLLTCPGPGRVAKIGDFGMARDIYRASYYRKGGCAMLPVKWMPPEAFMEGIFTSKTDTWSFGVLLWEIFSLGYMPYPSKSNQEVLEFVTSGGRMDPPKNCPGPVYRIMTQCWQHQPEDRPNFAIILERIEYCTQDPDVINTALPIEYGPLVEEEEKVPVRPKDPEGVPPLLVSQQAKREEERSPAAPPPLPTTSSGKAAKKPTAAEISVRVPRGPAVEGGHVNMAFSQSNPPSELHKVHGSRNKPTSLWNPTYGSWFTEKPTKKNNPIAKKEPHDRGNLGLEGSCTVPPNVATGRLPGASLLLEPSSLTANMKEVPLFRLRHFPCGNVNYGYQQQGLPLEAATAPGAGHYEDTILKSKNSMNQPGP
T2 sequence (O60674 whole entry): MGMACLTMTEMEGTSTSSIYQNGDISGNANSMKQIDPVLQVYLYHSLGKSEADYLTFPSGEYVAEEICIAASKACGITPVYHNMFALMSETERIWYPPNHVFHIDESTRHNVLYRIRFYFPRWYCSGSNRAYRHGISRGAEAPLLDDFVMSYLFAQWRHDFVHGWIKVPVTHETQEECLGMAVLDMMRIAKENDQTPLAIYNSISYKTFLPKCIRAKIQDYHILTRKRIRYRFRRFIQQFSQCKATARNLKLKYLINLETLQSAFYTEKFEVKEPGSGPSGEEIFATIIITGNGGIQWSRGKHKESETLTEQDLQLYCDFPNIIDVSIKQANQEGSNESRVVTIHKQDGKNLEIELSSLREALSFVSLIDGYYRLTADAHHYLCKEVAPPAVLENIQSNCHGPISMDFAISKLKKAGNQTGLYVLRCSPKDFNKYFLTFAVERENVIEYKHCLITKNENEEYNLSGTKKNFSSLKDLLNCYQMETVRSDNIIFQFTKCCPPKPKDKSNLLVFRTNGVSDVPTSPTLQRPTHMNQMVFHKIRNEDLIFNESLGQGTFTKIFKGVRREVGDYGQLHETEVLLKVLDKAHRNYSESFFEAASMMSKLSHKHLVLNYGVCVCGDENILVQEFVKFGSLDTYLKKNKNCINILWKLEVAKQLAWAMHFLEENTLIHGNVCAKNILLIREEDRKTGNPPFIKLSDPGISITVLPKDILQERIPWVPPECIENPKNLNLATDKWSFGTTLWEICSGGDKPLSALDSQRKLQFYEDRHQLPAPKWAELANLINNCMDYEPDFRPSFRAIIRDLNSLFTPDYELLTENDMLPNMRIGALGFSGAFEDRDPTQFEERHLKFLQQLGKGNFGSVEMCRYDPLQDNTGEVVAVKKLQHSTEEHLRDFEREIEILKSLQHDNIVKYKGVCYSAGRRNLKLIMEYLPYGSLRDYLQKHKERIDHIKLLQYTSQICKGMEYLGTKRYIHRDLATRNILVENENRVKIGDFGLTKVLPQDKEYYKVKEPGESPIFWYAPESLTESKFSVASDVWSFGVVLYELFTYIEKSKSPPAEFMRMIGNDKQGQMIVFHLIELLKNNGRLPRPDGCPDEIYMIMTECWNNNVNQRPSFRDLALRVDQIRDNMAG

| Molecule | pIC50 (ALK; [1]) | pIC50 (JAK2; [2]) | pIC50 (ALK; ALK Kinase Inhibition) | pIC50 (JAK2; JAK2 Kinase Inhibition) |
| --- | --- | --- | --- | --- |
| COc1cc(N2CCC[C@@H](CN3CCN(C)CC3)C2)ccc1Nc1ncc2ccc(-c3ccccc3OC)n2n1 [Example 470, {2-Methoxy-4-[(S)-3-(4-methyl-piperazin-1-ylmethyl)-piperidin-1-yl]-phenyl}-[7-(2-methoxy-phenyl)-pyrrolo[2,1-f][1,2,4]triazin-2-yl]-amine] | > 7.00 | 6.00 to 7.00 |  |  |
| C[S+]([O-])c1ccccc1-c1ccc2cnc(Nc3ccc(N4CCOCC4)cc3)nn12 (stereo not shown) [Example 405, [7-(2-Methanesulfinyl-phenyl)-pyrrolo[2,1-f][1,2,4]triazin-2-yl]-(4-morpholin-4-yl-phenyl)-amine] |  |  | 5.00 to 6.00 | > 7.00 |
| CN1CCN(c2cccc(Nc3ncc4ccc(-c5cccc(S(=O)(=O)NC(C)(C)C)c5)n4n3)c2)CC1 [Example 883, N-tert-Butyl-3-{2-[3-(4-methyl-piperazin-1-yl)-phenylamino]-pyrrolo[2,1-f][1,2,4]triazin-7-yl}-benzenesulfonamide] | > 7.00 | > 7.00 |  |  |
| CN1CCN(c2cccc(Nc3ncc4ccc(-c5cccc(COC(C)(C)C)c5)n4n3)c2)CC1 [Example 1558, [7-(3-tert-Butoxymethyl-phenyl)-pyrrolo[2,1-f][1,2,4]triazin-2-yl]-[3-(4-methyl-piperazin-1-yl)-phenyl]-amine] |  |  | 6.00 to 7.00 | > 7.00 |
| CC(C)(C)NS(=O)(=O)c1cccc(-c2ccc3cnc(Nc4cccc(N5CCCC5=O)c4)nn23)c1 [Example 1383, N-tert-Butyl-3-{2-[3-(2-oxo-pyrrolidin-1-yl)-phenylamino]-pyrrolo[2,1-f][1,2,4]triazin-7-yl}-benzenesulfonamide] |  |  | 5.00 to 6.00 | > 7.00 |
| Cc1nc(-c2ccc3cnc(Nc4ccc(N5CCN(C)CC5)cc4)nn23)cn1C [Example 1042, [7-(1,2-Dimethyl-1H-imidazol-4-yl)-pyrrolo[2,1-f][1,2,4]triazin-2-yl]-[4-(4-methyl-piperazin-1-yl)-phenyl]-amine] | 6.00 to 7.00 | > 7.00 |  |  |
| CN1CCN(c2ccc(Nc3ncc4c(Br)cc(Br)n4n3)cc2)CC1 [Example 84, (5,7-Dibromo-pyrrolo[2,1-f][1,2,4]triazin-2-yl)-[4-(4-methyl-piperazin-1-yl)-phenyl]-amine] |  |  | 5.00 to 6.00 | > 7.00 |
| COc1cc(C2CCN(C[C@H](O)C(F)(F)F)CC2)ccc1Nc1ncc2ccc(-c3ccccc3OC)n2n1 [Example 799, (S)-1,1,1-Trifluoro-3-(4-{3-methoxy-4-[7-(2-methoxy-phenyl)-pyrrolo[2,1-f][1,2,4]triazin-2-ylamino]-phenyl}-piperidin-1-yl)-propan-2-ol] | > 7.00 | 6.00 to 7.00 |  |  |
| COc1ccc(-c2ccc3cnc(Nc4ccc(C5CCN(CC(N)=O)CC5)c(NC(C)=O)c4)nn23)cn1 [Example 939, 2-(4-{2-Acetylamino-4-[7-(6-methoxy-pyridin-3-yl)-pyrrolo[2,1-f][1,2,4]triazin-2-ylamino]-phenyl}-piperidin-1-yl)-acetamide] | 6.00 to 7.00 | > 7.00 |  |  |
| CC(C)(C)NS(=O)(=O)c1cccc(-c2ccc3cnc(Nc4ccc(C5(C#N)CCN(CC(N)=O)CC5)cc4)nn23)c1 [Example 1544, 2-(4-{4-[7-(3-tert-Butylsulfamoyl-phenyl)-pyrrolo[2,1-f][1,2,4]triazin-2-ylamino]-phenyl}-4-cyano-piperidin-1-yl)-acetamide] |  |  | 6.00 to 7.00 | > 7.00 |
| Cc1cc(-c2ccc3cnc(Nc4ccc(N5CCN(C)CC5)cc4)nn23)cnc1F [Example 1046, [7-(6-Fluoro-5-methyl-pyridin-3-yl)-pyrrolo[2,1-f][1,2,4]triazin-2-yl]-[4-(4-methyl-piperazin-1-yl)-phenyl]-amine] | 6.00 to 7.00 | > 7.00 |  |  |
| Cc1cc2cnc(Nc3ccc(C4CCN(CC(N)=O)CC4)cc3)nn2c1-c1ccccc1N(C)S(C)(=O)=O [Example 516, 2-[4-(4-{7-[2-(Methanesulfonyl-methyl-amino)-phenyl]-6-methyl-pyrrolo[2,1-f][1,2,4]triazin-2-ylamino}-phenyl)-piperidin-1-yl]-acetamide] | 5.00 to 6.00 | > 7.00 |  |  |
| Cc1nn(C)cc1-c1ccc2cnc(Nc3ccc(N4CCN(C)CC4)cc3)nn12 [Example 1229, [7-(1,3-Dimethyl-1H-pyrazol-4-yl)-pyrrolo[2,1-f][1,2,4]triazin-2-yl]-[4-(4-methyl-piperazin-1-yl)-phenyl]-amine] | 6.00 to 7.00 | > 7.00 |  |  |
| CN1CCC(c2ccc(Nc3ncc4ccc(-c5cccc(Cl)c5)n4n3)cc2)CC1 [Example 1131, [7-(3-Chloro-phenyl)-pyrrolo[2,1-f][1,2,4]triazin-2-yl]-[4-(1-methyl-piperidin-4-yl)-phenyl]-amine] | > 7.00 | > 7.00 |  |  |
| COc1ccc(-c2ccc3cnc(Nc4ccc5c(c4)CN(C)C5)nn23)cn1 [Example 937, [7-(6-Methoxy-pyridin-3-yl)-pyrrolo[2,1-f][1,2,4]triazin-2-yl]-(2-methyl-2,3-dihydro-1H-isoindol-5-yl)-amine] | 5.00 to 6.00 | > 7.00 |  |  |
| O=C(NCCCN1CCOCC1)c1ccc(-c2ccc3cnc(Nc4ccc(N5CCOCC5)cc4)nn23)cc1 [Example 57, 4-[2-(4-Morpholin-4-yl-phenylamino)-pyrrolo[2,1-f][1,2,4]triazin-7-yl]-N-(3-morpholin-4-yl-propyl)-benzamide] |  |  | 5.00 to 6.00 | > 7.00 |
| COc1ccc(-c2ccc3cnc(Nc4ccc(N5CCN(C)CC5)cc4OC)nn23)cn1 [Example 73, [2-Methoxy-4-(4-methyl-piperazin-1-yl)-phenyl]-[7-(6-methoxy-pyridin-3-yl)-pyrrolo[2,1-f][1,2,4]triazin-2-yl]-amine] |  |  | > 7.00 | > 7.00 |
| {6-[7-(3-tert-Butylsulfamoyl-phenyl)-pyrrolo[2,1-f][1,2,4]triazin-2-yl amino]-2-hydroxy-indan-1-yl}-carbamic acid tert-butyl ester [Example 672] | 6.00 to 7.00 | > 7.00 |  |  |
| COc1cc(C2CCNCC2)ccc1Nc1ncc2ccc(-c3ccccc3N(C)S(C)(=O)=O)n2n1 [Example 819, N-{2-[2-(2-Methoxy-4-piperidin-4-yl-phenylamino)-pyrrolo[2,1-f][1,2,4]triazin-7-yl]-phenyl}-N-methyl-methanesulfonamide] | > 7.00 | 5.00 to 6.00 |  |  |
| CC(C)(C)NS(=O)(=O)c1cccc(-c2ccc3cnc(Nc4ccc5cn[nH]c5c4)nn23)c1 [Example 1327, N-tert-Butyl-3-[2-(1H-indazol-6-ylamino)-pyrrolo[2,1-f][1,2,4]triazin-7-yl]-benzenesulfonamide] | 5.00 to 6.00 | > 7.00 |  |  |
| COCCN1CCc2ccc(Nc3ncc4ccc(-c5cccc(CCC#N)c5)n4n3)cc2CC1 [Example 1152, 3-(3-{2-[3-(2-Methoxy-ethyl)-2,3,4,5-tetrahydro-1H-benzo[d]azepin-7-ylamino]-pyrrolo[2,1-f][1,2,4]triazin-7-yl}-phenyl)-propionitrile] | > 7.00 | > 7.00 |  |  |
| COc1cc(N2CCCC(N3CCN(S(C)(=O)=O)CC3)C2)ccc1Nc1ncc2ccc(-c3ccccc3OC)n2n1 (stereo not shown) [Example 233, {4-[3-(4-Methanesulfonyl-piperazin-1-yl)-piperidin-1-yl]-2-methoxy-phenyl}-[7-(2-methoxy-phenyl)-pyrrolo[2,1-f][1,2,4]triazin-2-yl]-amine] |  |  | > 7.00 | > 7.00 |
| CN1CCN(C(=O)c2ccc(Nc3ncc4ccc(-c5cccc(Cl)c5)n4n3)cc2)CC1 [Example 320, {4-[7-(3-Chloro-phenyl)-pyrrolo[2,1-f][1,2,4]triazin-2-ylamino]-phenyl}-(4-methyl-piperazin-1-yl)-methanone] |  |  | 6.00 to 7.00 | > 7.00 |
| CCOC(=O)c1cccc(Nc2ncc3ccc(-c4cccc(S(=O)(=O)NC(C)(C)C)c4)n3n2)c1 [Example 890, 3-[7-(3-tert-Butylsulfamoyl-phenyl)-pyrrolo[2,1f][1,2,4]triazin-2-ylamino]-benzoic acid ethyl ester] | < 5.00 | > 7.00 |  |  |
| CN1CCN(C(=O)C2CCN(c3ccc(Nc4ncc5ccc(-c6ccccc6N(C)S(C)(=O)=O)n5n4)cc3)CC2)CC1 [Example 448, N-Methyl-N-[2-(2-{4-[4-(4-methyl-piperazine-1-carbonyl)-piperidin-1-yl]-phenylamino}-pyrrolo[2,1-f][1,2,4]triazin-7-yl)-phenyl]-methanesulfonamide] |  |  | > 7.00 | > 7.00 |
| c1ccc(-c2ccc3cnc(NCc4cccnc4)nn23)cc1 [Example 12, (7-Phenyl-pyrrolo[2,1-f][1,2,4]triazin-2-yl)-pyridin-3-ylmethyl-amine] |  |  | 5.00 to 6.00 | 5.00 to 6.00 |
| CCN1CCN(C(=O)c2ccc(Nc3ncc4c(-c5ccccc5OC)ccn4n3)cc2)CC1 [Example 723, (4-Ethyl-piperazin-1-yl)-{4-[5-(2-methoxy-phenyl)-pyrrolo[2,1-f][1,2,4]triazin-2-ylamino]-phenyl}-methanone] | < 5.00 | 6.00 to 7.00 |  |  |
| CN1CCN(c2ccc(Nc3ncc4ccc(-c5ccccc5N(C)S(C)(=O)=O)n4n3)nc2)CC1 [Example 1197, N-Methyl-N-(2-{2-[5-(4-methyl-piperazin-1-yl)-pyridin-2-ylamino]-pyrrolo[2,1-f][1,2,4]triazin-7-yl}-phenyl)-methanesulfonamide] | 6.00 to 7.00 | > 7.00 |  |  |
| CS(=O)(=O)Nc1cccc(-c2ccc3cnc(Nc4cccc(N5CCOCC5)c4)nn23)c1 [Example 183, N-{3-[2-(3-Morpholin-4-yl-phenylamino)-pyrrolo[2,1-f][1,2,4]triazin-7-yl]-phenyl}-methanesulfonamide] |  |  | 6.00 to 7.00 | > 7.00 |
